Reference: the NIST ThermoML archive (doi:10.1016/j.fluid.2012.08.030)

How the values were obtained:
[1] = Liquid; for mass density: 101 kPa, Vibrating tube method; for vapor or sublimation pressure: Ebulliometric method (Recirculating still)
[2] = xn = mol fraction of the nth substance listed; conditions: 101 kPa, Liquid, Vibrating tube method

CCCCOCCO [2-butoxyethan-1-ol]
[1]
Conditions | mass density [kg/m3] | vapor or sublimation pressure [kPa]
303.15 K | 892.28 | –
308.15 K | 888.19 | –
313.15 K | 884.17 | –
318.15 K | 880.02 | –
406.8 K | – | 28.1
412.1 K | – | 34.2
417.35 K | – | 41.3
421.57 K | – | 47.9
424.9 K | – | 53.7
428.43 K | – | 60.5
432.22 K | – | 68.6
435.52 K | – | 76.4
437.42 K | – | 81.2
440.2 K | – | 88.7
442.49 K | – | 95.3

CCCCOCCO [2-butoxyethan-1-ol] + CN1CCCC1=O
mass density [kg/m3], [2]
Conditions | 303.15 K | 308.15 K | 313.15 K | 318.15 K
x2 = 0 | 892.28 | 888.19 | 884.17 | 880.02
x2 = 0.132 | 914.72 | 911.2 | 907.8 | 904.37
x2 = 0.255 | 934.22 | 931.07 | 928.06 | 925.08
x2 = 0.369 | 951.2 | 948.27 | 945.46 | 942.72
x2 = 0.477 | 966.04 | 963.19 | 960.43 | 957.74
x2 = 0.577 | 979 | 976.12 | 973.27 | 970.48
x2 = 0.672 | 990.36 | 987.35 | 984.32 | 981.3
x2 = 0.761 | 1000.3 | 997.1 | 993.8 | 990.46
x2 = 0.845 | 1009.04 | 1005.59 | 1001.93 | 998.18
x2 = 0.925 | 1016.72 | 1012.95 | 1008.89 | 1004.66
x2 = 0.948 | 1018.83 | 1014.97 | 1010.77 | 1006.39
x2 = 0.963 | 1020.19 | 1016.26 | 1011.97 | 1007.49
x2 = 0.978 | 1021.52 | 1017.52 | 1013.14 | 1008.55
x2 = 0.993 | 1022.82 | 1018.74 | 1014.27 | 1009.57

CCOCCO [2-ethoxyethan-1-ol]
[1]
Conditions | mass density [kg/m3] | vapor or sublimation pressure [kPa]
303.15 K | 921.21 | –
308.15 K | 916.48 | –
313.15 K | 911.88 | –
318.15 K | 907.79 | –
373.48 K | – | 28.1
378.36 K | – | 34.2
383.18 K | – | 41.3
387.06 K | – | 47.9
390.12 K | – | 53.7
393.37 K | – | 60.5
396.86 K | – | 68.6
399.9 K | – | 76.4
401.65 K | – | 81.2
404.22 K | – | 88.7
406.33 K | – | 95.3

CCOCCO [2-ethoxyethan-1-ol] + CN1CCCC1=O
mass density [kg/m3], [2]
Conditions | 303.15 K | 308.15 K | 313.15 K | 318.15 K
x2 = 0 | 921.21 | 916.48 | 911.88 | 907.79
x2 = 0.101 | 936.06 | 931.85 | 927.8 | 924.28
x2 = 0.202 | 949.87 | 946.07 | 942.45 | 939.35
x2 = 0.302 | 962.64 | 959.15 | 955.84 | 953.02
x2 = 0.402 | 974.38 | 971.1 | 967.97 | 965.3
x2 = 0.503 | 985.1 | 981.93 | 978.86 | 976.19
x2 = 0.602 | 994.78 | 991.62 | 988.5 | 985.68
x2 = 0.702 | 1003.45 | 1000.2 | 996.91 | 993.82
x2 = 0.802 | 1011.12 | 1007.68 | 1004.1 | 1000.58
x2 = 0.851 | 1014.58 | 1011.01 | 1007.23 | 1003.46
x2 = 0.901 | 1017.78 | 1014.06 | 1010.06 | 1006
x2 = 0.926 | 1019.29 | 1015.48 | 1011.37 | 1007.14
x2 = 0.951 | 1020.74 | 1016.84 | 1012.59 | 1008.2
x2 = 0.982 | 1022.5 | 1018.47 | 1014.05 | 1009.43

COCCO [2-methoxyethan-1-ol]
[1]
Conditions | mass density [kg/m3] | vapor or sublimation pressure [kPa]
303.15 K | 955.74 | –
308.15 K | 951.14 | –
313.15 K | 946.25 | –
318.15 K | 941.59 | –
364.15 K | – | 28.1
368.84 K | – | 34.2
373.48 K | – | 41.3
377.22 K | – | 47.9
380.17 K | – | 53.7
383.3 K | – | 60.5
386.66 K | – | 68.6
389.59 K | – | 76.4
391.28 K | – | 81.2
393.75 K | – | 88.7
395.78 K | – | 95.3

COCCO [2-methoxyethan-1-ol] + CN1CCCC1=O
mass density [kg/m3], [2]
Conditions | 303.15 K | 308.15 K | 313.15 K | 318.15 K
x2 = 0 | 955.74 | 951.14 | 946.25 | 941.59
x2 = 0.084 | 965.64 | 961.46 | 957.05 | 952.92
x2 = 0.171 | 975.06 | 971.25 | 967.28 | 963.59
x2 = 0.261 | 983.98 | 980.47 | 976.83 | 973.49
x2 = 0.354 | 992.29 | 989 | 985.62 | 982.52
x2 = 0.451 | 999.91 | 996.77 | 993.52 | 990.55
x2 = 0.552 | 1006.73 | 1003.64 | 1000.44 | 997.46
x2 = 0.657 | 1012.64 | 1009.49 | 1006.19 | 1003.04
x2 = 0.767 | 1017.5 | 1014.17 | 1010.64 | 1007.15
x2 = 0.881 | 1021.17 | 1017.52 | 1013.58 | 1009.56
x2 = 0.916 | 1022 | 1018.23 | 1014.14 | 1009.93
x2 = 0.94 | 1022.5 | 1018.64 | 1014.43 | 1010.07
x2 = 0.97 | 1023.01 | 1019.04 | 1014.68 | 1010.13
x2 = 0.988 | 1023.3 | 1019.24 | 1014.78 | 1010.1

CN1CCCC1=O [N-methylpyrrolidone]
[1]
Conditions | mass density [kg/m3] | vapor or sublimation pressure [kPa]
303.15 K | 1023.45 | –
308.15 K | 1019.34 | –
313.15 K | 1014.82 | –
318.15 K | 1010.06 | –
430.09 K | – | 28.1
436.5 K | – | 34.2
442.88 K | – | 41.3
448.05 K | – | 47.9
452.13 K | – | 53.7
456.48 K | – | 60.5
461.17 K | – | 68.6
465.29 K | – | 76.4
467.66 K | – | 81.2
471.15 K | – | 88.7
474.01 K | – | 95.3

CN1CCCC1=O [N-methylpyrrolidone] + CCCCOCCO
[2], x1 = 1
Conditions | mass density [kg/m3]
303.15 K | 1023.45
308.15 K | 1019.34
313.15 K | 1014.82
318.15 K | 1010.06

CN1CCCC1=O [N-methylpyrrolidone] + CCOCCO
[2], x1 = 1
Conditions | mass density [kg/m3]
303.15 K | 1023.45
308.15 K | 1019.34
313.15 K | 1014.82
318.15 K | 1010.06

CN1CCCC1=O [N-methylpyrrolidone] + COCCO
[2], x1 = 1
Conditions | mass density [kg/m3]
303.15 K | 1023.45
308.15 K | 1019.34
313.15 K | 1014.82
318.15 K | 1010.06
